In patent US7732442B2 (Ono Pharmaceutical Co., Ltd., priority 2003, dated 2010) one finds IC50 data, which are given here for 2 compounds.

The target in this assay is T1, human CCR4 (Homo sapiens, UniProt P51679).
T1 construct: expressed in transfected cells; host or cells: CHO-dhfr(-)
T1 sequence (P51679 1-360): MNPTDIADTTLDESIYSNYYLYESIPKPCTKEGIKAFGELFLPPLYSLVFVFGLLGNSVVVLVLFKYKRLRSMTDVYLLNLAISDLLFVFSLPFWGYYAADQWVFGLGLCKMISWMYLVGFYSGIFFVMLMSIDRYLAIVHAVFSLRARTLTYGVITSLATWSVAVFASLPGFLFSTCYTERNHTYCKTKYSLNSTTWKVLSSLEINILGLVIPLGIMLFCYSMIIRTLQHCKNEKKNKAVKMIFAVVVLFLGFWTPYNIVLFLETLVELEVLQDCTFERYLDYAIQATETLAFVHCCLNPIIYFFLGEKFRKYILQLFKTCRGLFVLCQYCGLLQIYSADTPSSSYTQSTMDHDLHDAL
As to the kind of experiment: Inhibition test on activity of MDC mediated by CCR4 (MDC-induced transient increase of Ca ions) in CCR4/CHO cells. It is filed as cell-based. The note with it: in the presence of 0.3% BSA; human MDC 10 nM; CCR4/CHO cell; read-out: IC50 value (inhibition of Ca2+ transient increase by MDC). As to the method: Human bone marrow cell cDNA was prepared using Marathon cDNA amplification kit (manufactured by Clontech). PCR primers hCCR4XbaI-F1 (SEQ ID NO:1) and hCCR4XbaI-R1 (SEQ ID NO:2) were designed based on the sequence of GenBankX85740.
Using the human bone marrow cell cDNA as the template and using Ex Taq (manufactured by Takara), a PCR reaction (2 minutes at 95° C.→[30 seconds at 95° C., 45 seconds at 60° C., 1 minute at 72° C.]×35 times) was carried out. The thus amplified PCR product was subjected to 1% agarose gel electrophoresis, purified using QIAquick Gel Extraction Kit (manufactured by QUIAGEN) and then digested with a restriction enzyme XbaI. […]
The thus established human CCR4 stably overexpressing CHO cell (CCR4/CHO cell) was suspended in Ham's F-12 medium and FBS (10%) and dispensed into a 96-well plate at 3.0×10^4 cells/well. […] Transient increase in the intracellular Ca^2+ concentration induced by the human MDC was measured using a Ca^2+ detector for 96-well (manufactured by Hamamatsu Photonics), and inhibition ratio (%) of the test compound was calculated by the following equation: Inhibition ratio=[(Ec−Ea)/Ec]×100 • Ec: measured value of Ca^2+ transient increase by MDC; and • Ea: measured value of Ca^2+ transient increase by MDC when a test compound was added […]

Consider `COc1ccc(COc2cc(Br)cnc2NS(=O)(=O)c2ccc(C)cc2)cc1OCCN(C)C` [Example 2(2), N-[5-bromo-3-({3-[2-(dimethylamino)ethoxy]-4-methoxybenzyl}oxy)pyridin-2-yl]-4-methylbenzenesulfonamide], for which the half-inhibitory concentration (IC50) worked out at 230 nM. The figure for `Cc1cnc(NS(=O)(=O)c2ccccc2Cl)c(OCc2ccc(Cl)c(OCC3CCN(C)CC3)c2)n1` [Example 6(1)] is 80 nM.

As usually defined, the IC50 is the midpoint of a concentration-inhibition curve.
